Results on two compounds are retold here after patent US20070099962A1, “5,6-Dihydropyrin-2-one compounds useful as inhibitors of thrombin” (priority 2003, published 2007).

This assay addresses T1, Human α-thrombin (Homo sapiens, UniProt P00734).
T1 construct: Human α-thrombin, Sigma Chemical Co. or Hematologic Technologies; purchased Sigma Chemical Co. or Hematologic Technologies
Nature of the assay: Test B: Determination of Thrombin Inhibition with a Chromogenic, Robotic Assay. The assay is classed as biochemical. Particulars: chromogenic substrate S-2366, 40 minutes incubation at 37° C. From the text:
The thrombin clotting time (TT) is expressed as absolute values (seconds) as well as the ratio of TT without inhibitor (TT0) to TT with inhibitor (TTi). The latter ratios (range 1-0) are plotted against the concentration of inhibitor (log transformed) and fitted to sigmoidal dose-response curves according to the equation y=a/[1+(x/IC50)^s] where: a=maximum range, i.e. 1; s=slope of the dose-response curve; and IC50=the concentration of inhibitor that doubles the clotting time. The calculations are processed on a PC using the software program GraFit Version 3, setting equation equal to: Start at 0, define end=1 (Erithacus Software, Robin Leatherbarrow, Imperial College of Science, London, UK). […]
The thrombin inhibitor potency is measured with a chromogenic substrate method, in a Plato 3300 robotic microplate processor (Rosys AG, CH-8634 Hombrechtikon, Switzerland), using 96-well, half volume microtitre plates (Costar, Cambridge, Mass., USA; Cat No 3690). Stock solutions of test substance in DMSO (72 μL), 0.1-1 mmol/L, are diluted serially 1:3 (24+48 μL) with DMSO to obtain ten different concentrations, which are analysed as samples in the assay. […] The linear absorbance increment during 40 minutes incubation at 37° C. is used for calculation of percentage inhibition for the test samples, as compared to blanks without inhibitor. […]

Structures are written as SMILES.

By IC50 is commonly meant the concentration needed to halve the response being measured. Read a low IC50 as greater potency. `CC1=C(CC(=O)NCc2ccc(C(=N)N)cc2)C(=O)N(NS(=O)(=O)Cc2ccccc2)CC1` [2(i), N-(4-Carbamimidoylbenzyl)-2-(4-methyl-2-oxo-1-phenylmethanesulfonylamino-1,2,5,6-tetrahydropyridin-3-yl)acetamide]: the IC50 amounted to 240 nM.
Compound `CC1=C(CC(=O)NCc2ccc(C(=N)N)cc2)C(=O)N(NS(=O)(=O)c2cccc3ccccc23)CC1` [2(iii), N-(4-Carbamimidoylbenzyl)-2-[4-methyl-1-(naphthalene-1-sulfonylamino)-2-oxo-1,2,5,6-tetrahydropyridin-3-yl]acetamide] returned an IC50 of 25.6 nM.
